For 41 compounds, DSF results are on record in patent US20260285857A1, “BICYCLIC AND HETEROCYCLIC AMIDE COMPOUNDS” (priority 2024, published 2026).

Structures are written as SMILES.

For the first experiment, the system named is immunoglobulin light chain protein WIL-FL T46L. The experiment can be described thus: Differential scanning fluorimetry (thermal shift) assay. Format: binding.
Conditions: not given
Turning to `CNC(=O)c1nc2c(C)cc(N3CC[C@](C)(c4cccc(F)c4)C3)cn2n1` [Compound 32], the DSF entry is “***** (key: 0-0.5° C.=*; >0.5-1 °C =**; >1-1.5° C.=***; >1.5-2.5° C.=****; >2.5° C.=*****)”.

The same experiment, now with this note: Table A; temperature shift [Tm]compound-[Tm]vehicle; recombinant WIL-FL T46L.
In the case of `Cc1cc(N2CC3(CC[C@H]3c3ccccc3)C2)cn2nc(C(=O)N3CC[C@@]4(CCN(c5cccc(C(=O)O)n5)C4)C3)nc12` [Compound 24A, Lithium 6-((R)-7-(8-methyl-6-((S)-5-phenyl-2-azaspiro[3.3]heptan-2-yl)-[1,2,4]triazolo[1,5-a]pyridine-2-carbonyl)-2,7-diazaspiro[4.4]nonan-2-yl)picolinate], the DSF entry is reported as “***** (>2.5° C.=*****)”.

In the case of `Cc1cc(N2CC3(CC[C@@H]3c3ccccc3)C2)cn2nc(C(=O)N3CC[C@@]4(CCN(c5cccc(C(=O)[O-])n5)C4)C3)nc12.[Li+]` [Compound 24B, lithium 6-((R)-7-(8-methyl-6-((R)-5-phenyl-2-azaspiro[3.3]heptan-2-yl)-[1,2,4]triazolo[1,5-a]pyridine-2-carbonyl)-2,7-diazaspiro[4.4]nonan-2-yl)picolinate], the DSF entry is on record as “***** (>2.5° C.=*****)”.

Regarding `Cc1ncn(C2(C)CCN(c3cc(C)c4nc(C(=O)N5C[C@@H]6CN(c7cccc(C(=O)O)n7)C[C@@H]6C5)nn4c3)C2=O)n1` (stereo partly drawn) [Compound 25, 6-((3aR,6aS)-5-(8-methyl-6-(3-methyl-3-(3-methyl-1H-1,2,4-triazol-1-yl)-2-oxopyrrolidin-1-yl)-[1,2,4]triazolo[1,5-a]pyridine-2-carbonyl)hexahydropyrrolo[3,4-c]pyrrol-2(1H)-yl)picolinic acid], the DSF entry is reported as “* (0-0.5° C.=*)”.

As to `Cc1cc(N2CC[C@](C)(c3ccccc3)C2)cn2nc(S(=O)(=O)NC3CNC3)nc12` [Compound 27, N-(azetidin-3-yl)-8-methyl-6-[(3R)-3-methyl-3-phenyl-pyrrolidin-1-yl]-[1,2,4]triazolo[1,5-a]pyridine-2-sulfonamide], the DSF entry is “***** (>2.5° C.=*****)”.

In the case of `Cc1cc(N2CC[C@](c3ccccc3)(C(F)F)C2)cn2nc(C(=O)NCC(C)(C)O)nc12` [Compound 28, 6-[(3R)-3-(difluoromethyl)-3-phenyl-pyrrolidin-1-yl]-N-(2-hydroxy-2-methyl-propyl)-8-methyl-[1,2,4]triazolo[1,5-a]pyridine-2-carboxamide], the DSF entry was “**** (>1.5-2.5° C.=****)”.

On to `Cc1cc(N2CC[C@](C)(c3ccccc3)C2)cn2nc(C(=O)NC3CC4(CCC4N4CC5C(C4)C5C(=O)O)C3)nc12` (stereo partly drawn) [Compound 31, 3-[2-[[8-methyl-6-[(3R)-3-methyl-3-phenyl-pyrrolidin-1-yl]-[1,2,4]triazolo[1,5-a]pyridine-2-carbonyl]amino]spiro[3.3]heptan-7-yl]-3-azabicyclo[3.1.0]hexane-6-carboxylic acid], for which the DSF entry is “***** (>2.5° C.=*****)”.

In the case of `CCC1(c2ccccc2)CN(c2cc(C)c3nc(C(=O)NC)nn3c2)C1` [Compound 33, 6-(3-ethyl-3-phenyl-azetidin-1-yl)-N, 8-dimethyl-[1,2,4]triazolo[1,5-a]pyridine-2-carboxamide], the DSF entry is “***** (>2.5° C.=*****)”.

In the case of `Cc1cc(N2CCC(C)(c3ccccn3)C2)cn2nc(C(=O)NC3CCN(c4cccc(C(=O)O)n4)CC3)nc12` (centres unmarked) [Compound 34, 6-[4-[[8-methyl-6-[3-methyl-3-(2-pyridyl)pyrrolidin-1-yl]-[1,2,4]triazolo[1,5-a]pyridine-2-carbonyl]amino]-1-piperidyl]pyridine-2-carboxylic acid], the DSF result is “**** (>1.5-2.5° C.=****)”.

As to `Cc1cc(N2CCC(C)(c3nnn(C)n3)C2)cn2nc(C(=O)N3C[C@@H]4CN(c5cccc(C(=O)O)n5)C[C@@H]4C3)nc12` (some centres unmarked) [Compound 35, 6-[5-[8-methyl-6-[3-methyl-3-(2-methyltetrazol-5-yl)pyrrolidin-1-yl]-[1,2,4]triazolo[1,5-a]pyridine-2-carbonyl]-1,3,3a, 4,6,6a-hexahydropyrrolo[3,4-c]pyrrol-2-yl]pyridine-2-carboxylic acid], the DSF entry is reported as “*** (>1-1.5° C.=***)”.

Take `Cc1cc(N2CC[C@](C)(c3ccc(Cl)c(Cl)c3)C2)cn2nc(C(=O)N3CC[C@@]4(CCN(c5cccc(C(=O)O)n5)C4)C3)nc12` [Compound 37, 6-[(5R)-2-[6-[(3R)-3-(3,4-dichlorophenyl)-3-methyl-pyrrolidin-1-yl]-8-methyl-[1,2,4]triazolo[1,5-a]pyridine-2-carbonyl]-2,7-diazaspiro[4.4]nonan-7-yl]pyridine-2-carboxylic acid]: the DSF result is given as “***** (>2.5° C.=*****)”.

Turning to `COC(=O)c1cccc(N2C[C@H]3CN(C(=S)c4nc5c(C)cc(N6CCC(C)(c7nnc(C)s7)C6)cn5n4)C[C@H]3C2)n1` (some centres unmarked) [Compound 38, methyl 6-[5-[8-methyl-6-[3-methyl-3-(5-methyl-1,3,4-thiadiazol-2-yl)pyrrolidin-1-yl]-[1,2,4]triazolo[1,5-a]pyridine-2-carbothioyl]-1,3,3a, 4,6,6a-hexahydropyrrolo[3,4-c]pyrrol-2-yl]pyridine-2-carboxylate], the DSF entry was “* (0-0.5° C.=*)”.

With `Cc1cc(N2CC[C@](C)(c3ccccc3)C2)cc2oc(C(=O)N3CC4CN(c5cccc(C(=O)O)n5)CC4C3)nc12` (stereo partly drawn) [Compound 40, 6-(5-(4-methyl-6-((R)-3-methyl-3-phenylpyrrolidin-1-yl)benzo[d]oxazole-2-carbonyl)hexahydropyrrolo[3,4-c]pyrrol-2(1H)-yl)picolinic acid], the DSF result was “***** (>2.5° C.=*****)”.

As for `CNC(=O)C12COC(c3nc4c(C)cc(N5CC[C@](C)(c6ccccc6)C5)cn4n3)(C1)C2c1n[nH]c(C)n1` (some centres unmarked) [Compound 41], the DSF entry is listed as “***** (>2.5° C.=*****)”.

With `Cc1cc(N2CC[C@](C)(c3ccccc3)C2)cn2nc(C34CC(CO)(CO3)C4C(N)=O)nc12` (some centres unmarked) [Compound 42], the DSF result is “***** (>2.5° C.=*****)”.

As to `Cc1nc(C2C3(CO)COC2(c2nc4c(C)cc(N5CC[C@](C)(c6ccccc6)C5)cn4n2)C3)n[nH]1` (some centres unmarked) [Compound 43], the DSF entry is “***** (>2.5° C.=*****)”.

On to `Cc1cc(N2CC[C@](C)(c3ccccc3)C2)cn2nc(C34CC(CN)(CO3)C4C(N)=O)nc12` (some centres unmarked) [Compound 44], for which the DSF result is “***** (>2.5° C.=*****)”.

`Cc1cc(N2CC[C@](C)(c3ccccc3)C2)cn2nc(C34CC(C(N)=O)(CO3)C4C(N)=O)nc12` (some centres unmarked) [Compound 45]: the DSF result is “***** (>2.5° C.=*****)”.

On to `Cc1nc(C2C3(CN)COC2(c2nc4c(C)cc(N5CC[C@](C)(c6ccccc6)C5)cn4n2)C3)n[nH]1` (some centres unmarked) [Compound 46], for which the DSF result was “***** (>2.5° C.=*****)”.

On to `Cc1cc(N2CC[C@](C)(c3ccccc3)C2)cn2nc(C34CC(=O)NC(N)(CO3)C4)nc12` (some centres unmarked) [Compound 47], for which the DSF entry is given as “***** (>2.5° C.=*****)”.

In the case of `Cc1nc(C2C3(N)COC2(c2nc4c(C)cc(N5CC[C@](C)(c6ccccc6)C5)cn4n2)C3)n[nH]1` (some centres unmarked) [Compound 48], the DSF entry is on record as “***** (>2.5° C.=*****)”.

In the case of `Cc1cc(N2CC[C@](C)(c3ccccc3)C2)cn2nc(C34CC(CO)(CO3)C4C#N)nc12` (some centres unmarked) [Compound 49], the DSF entry was “***** (>2.5° C.=*****)”.

On to `Cc1cc(N2CC[C@](C)(c3ccccc3)C2)cn2nc(C34CC(N(C)C)(CO3)C4CO)nc12` (some centres unmarked) [Compound 50], for which the DSF result is on record as “***** (>2.5° C.=*****)”.

On to `CC[C@]1(c2ccccc2)CCN(c2cc(C)c3nc(C45CC(N)(CO4)C5)nn3c2)C1` [Compound 51], for which the DSF result is “** (>0.5-1 °C =**)”.

For the compound `CC(=O)NC12COC(c3nc4c(C)cc(N5CC[C@](C)(c6ccccc6)C5)cn4n3)(C1)C2` [Compound 52], the DSF entry is given as “***** (>2.5° C.=*****)”.

As for `Cc1cc(N2CC[C@](C)(c3ccccc3)C2)cn2nc(C34CCC(NC(=O)CC(C)(C)O)(C3)O4)nc12` (some centres unmarked) [Compound 53], the DSF entry is “***** (>2.5° C.=*****)”.

Regarding `CCNC(=O)C12COC(c3nc4c(C)cc(N5CC[C@](C)(c6ccccc6)C5)cn4n3)(C1)C2` [Compound 54], the DSF result is reported as “***** (>2.5° C.=*****)”.

Regarding `Cc1cc(N2CC[C@](C)(c3ccccc3)C2)cn2nc(C34CC(C(N)=O)(CO3)C4)nc12` [Compound 55], the DSF result is on record as “***** (>2.5° C.=*****)”.

Regarding `Cc1nnc(CNC23COC(c4nc5c(C)cc(N6CC[C@](C)(c7ccccc7)C6)cn5n4)(C2)C3)[nH]1` [Compound 56], the DSF entry is on record as “***** (>2.5° C.=*****)”.

Regarding `Cc1cc(OCC2(c3ccccc3)CC2)cn2nc(C34CC(N)(CO3)C4)nc12` [Compound 57], the DSF entry is on record as “***** (>2.5° C.=*****)”.

For `Cc1cc(N2CC[C@](C)(c3ccccc3)C2)cn2nc(C34CC(CN)(CO3)C4)nc12` [Compound 58], the DSF entry is on record as “***** (>2.5° C.=*****)”.

Turning to `C[C@]1(c2ccccc2)CCN(c2cc(CO)c3nc(C45CC(N)(CO4)C5)nn3c2)C1` [Compound 59], the DSF entry is listed as “***** (>2.5° C.=*****)”.

As for `Cc1cc(N2CC[C@](C)(c3ccccc3)C2)cn2nc(C34CC(CO)(CO3)C4)nc12` [Compound 60], the DSF entry is “***** (>2.5° C.=*****)”.

Turning to `Cc1cc(OC[C@H](C)c2ccccc2)cn2nc(C34CC(N)(CO3)C4)nc12` [Compound 61], the DSF result is given as “**** (>1.5-2.5° C.=****)”.

Regarding `Cc1cc(N2CC[C@](C)(c3ccccc3)C2)cn2nc(C34CC(NC(=O)Cn5ncnc5C)(CO3)C4)nc12` [Compound 62], the DSF entry is on record as “***** (>2.5° C.=*****)”.

As to `Cc1cc(N2CC[C@](C)(c3ccccc3)C2)cn2nc(C34CC(N5CC6C(C5)C6C(=O)O)(CO3)C4)nc12` (some centres unmarked) [Compound 63], the DSF result is recorded as “***** (>2.5° C.=*****)”.

On to `Cc1cc(N2CC[C@](C)(c3ccccc3)C2)cn2nc(C34CCC(N)(CC3)CO4)nc12` [Compound 64], for which the DSF result was “***** (>2.5° C.=*****)”.

In the case of `Cc1cc(N2CC[C@](C)(c3ccccc3)C2)cn2nc(C34CC(CN)(C3)OC4(C)C)nc12` [Compound 65], the DSF result is “**** (>1.5-2.5° C.=****)”.

On to `Cc1cc(N2CC[C@](C)(c3ccccc3)C2)cn2nc(C34CCC(N)(CO3)C4)nc12` (some centres unmarked) [Compound 66], for which the DSF result is recorded as “***** (>2.5° C.=*****)”.

Turning to `Cc1cc(N2CC[C@](C)(c3ccccc3)C2)cn2nc([C@@]34CO[C@@H](C3)C(N)C4)nc12` (some centres unmarked) [Compound 67], the DSF result is reported as “**** (>1.5-2.5° C.=****)”.

Regarding `Cc1cc(N2CC[C@](C)(c3ccccc3)C2)cn2nc([C@]34CO[C@H](C3)C(N)C4)nc12` (some centres unmarked) [Compound 68], the DSF entry is “**** (>1.5-2.5° C.=****)”.
